Where a SMILES comes first, the peptide text is derived from it. Bridges are numbered along the chain shown (N, C = ends).
assay: Determination of the protein binding (90% serum, 30 kDa filter, HPLC); type: in vitro ADME; conditions: serum
Method: Protein binding assays were performed as follows. The purified peptides were mixed with 90% serum and centrifuged through a 30 kDa filter. The ultra-filtrate and the non filtrated serum samples were quantified by HPLC measurements and the protein binding was subsequently calculated.

SMILES | fraction unbound
CC(C)C[C@@H]1NC(=O)CNC(=O)[C@H](CC(N)=O)NC(=O)[C@H](CCCNC(=N)N)NC(=O)[C@H](CCCCN)NC(=O)[C@H](CO)NC(=O)[C@@H]2CSSC[C@H](NC(=O)[C@H](C(C)C)NC(=O)[C@H](CCCNC(=N)N)NC1=O)C(=O)N[C@@H](Cc1ccc(O)cc1)C(=O)N[C@@H](CCCNC(=N)N)C(=O)N[C@@H](CCCNC(=N)N)C(=O)N[C@H](C(=O)N[C@@H](CC(N)=O)C(=O)O)CSSC[C@H](NC(=O)[C@H](Cc1ccccc1)NC(=O)CN)C(=O)N[C@@H](Cc1c[nH]c3ccccc13)C(=O)N[C@@H](Cc1c[nH]cn1)C(=O)N[C@@H](C(C)C)C(=O)N2 [compound 396] (H-GFCWHVCSKRNGLRVCYRRCN-OH; disulfide 3-20, 7-16 (inferred); N-terminus and C-terminus assumed) | 0.08
CC(C)[C@@H]1NC(=O)CNC(=O)[C@H](CC(N)=O)NC(=O)[C@H](CCCNC(=N)N)NC(=O)[C@H](CCCNC(=N)N)NC(=O)[C@H](C)NC(=O)[C@@H]2CSSC[C@H](NC(=O)[C@H](C(C)C)NC(=O)[C@H](CCCNC(=N)N)NC1=O)C(=O)N[C@@H](Cc1ccc(O)cc1)C(=O)N[C@@H](CCCNC(=N)N)C(=O)N[C@@H](CCCNC(=N)N)C(=O)N[C@H](C(=O)N[C@@H](CC(N)=O)C(=O)O)CSSC[C@H](NC(=O)[C@H](Cc1ccccc1)NC(=O)CN)C(=O)N[C@@H](Cc1c[nH]c3ccccc13)C(=O)N[C@@H](CC(N)=O)C(=O)N[C@@H](C)C(=O)N2 [compound 407] (H-GFCWNACARRNGVRVCYRRCN-OH; disulfide 3-20, 7-16 (inferred); N-terminus and C-terminus assumed) | 0.12
CC(C)[C@@H]1NC(=O)[C@H](CC(N)=O)NC(=O)[C@H](Cc2c[nH]c3ccccc23)NC(=O)[C@@H](NC(=O)[C@H](Cc2ccccc2)NC(=O)CN)CSSC[C@@H](C(=O)N[C@@H](CC(N)=O)C(=O)O)NC(=O)[C@H](CCCNC(=N)N)NC(=O)[C@H](CCCNC(=N)N)NC(=O)[C@H](Cc2ccc(O)cc2)NC(=O)[C@@H]2CSSC[C@H](NC1=O)C(=O)N[C@@H](C)C(=O)N[C@@H](Cc1ccc(O)cc1)C(=O)N[C@@H](CCCNC(=N)N)C(=O)N[C@@H](CC(N)=O)C(=O)NCC(=O)N[C@@H](CCCCN)C(=O)N[C@@H](CCCNC(=N)N)C(=O)N[C@@H](C)C(=O)N2 [compound 411] (H-GFCWNVCAYRNGKRACYRRCN-OH; disulfide 3-20, 7-16 (inferred); N-terminus and C-terminus assumed) | 0.14
CC(C)[C@@H]1NC(=O)[C@H](CCCNC(=N)N)NC(=O)[C@H](CCCCN)NC(=O)CNC(=O)[C@H](CC(N)=O)NC(=O)[C@H](CCCNC(=N)N)NC(=O)[C@H](Cc2ccc(O)cc2)NC(=O)[C@H](C)NC(=O)[C@@H]2CSSC[C@H](NC1=O)C(=O)N[C@@H](Cc1ccc(O)cc1)C(=O)N[C@@H](CCCNC(=N)N)C(=O)N[C@@H](CCCNC(=N)N)C(=O)N[C@H](C(=O)N[C@@H](CC(N)=O)C(=O)O)CSSC[C@H](NC(=O)[C@H](Cc1ccccc1)NC(=O)CN)C(=O)N[C@@H](Cc1c[nH]c3ccccc13)C(=O)N[C@@H](CCCNC(=N)N)C(=O)N[C@@H](C)C(=O)N2 [compound 417] (H-GFCWRACAYRNGKRVCYRRCN-OH; disulfide 3-20, 7-16 (inferred); N-terminus and C-terminus assumed) | 0.05
CC(C)[C@@H]1NC(=O)CNC(=O)[C@H](CC(N)=O)NC(=O)[C@H](CCCNC(=N)N)NC(=O)[C@H](Cc2ccc(O)cc2)NC(=O)[C@H](C)NC(=O)[C@@H]2CSSC[C@H](NC(=O)[C@H](C)NC(=O)[C@H](CCCNC(=N)N)NC1=O)C(=O)N[C@@H](Cc1ccc(O)cc1)C(=O)N[C@@H](CCCNC(=N)N)C(=O)N[C@@H](CCCNC(=N)N)C(=O)N[C@H](C(=O)N[C@@H](CC(N)=O)C(=O)O)CSSC[C@H](NC(=O)[C@H](Cc1ccccc1)NC(=O)CN)C(=O)N[C@@H](Cc1c[nH]c3ccccc13)C(=O)N[C@@H](CCCNC(=N)N)C(=O)N[C@@H](C)C(=O)N2 [compound 418] (H-GFCWRACAYRNGVRACYRRCN-OH; disulfide 3-20, 7-16 (inferred); N-terminus and C-terminus assumed) | 0.08
CC(C)[C@@H]1NC(=O)[C@H](CCCNC(=N)N)NC(=O)[C@H](Cc2c[nH]c3ccccc23)NC(=O)[C@@H](NC(=O)[C@H](Cc2ccccc2)NC(=O)CN)CSSC[C@@H](C(=O)N[C@@H](CC(N)=O)C(=O)O)NC(=O)[C@H](CCCNC(=N)N)NC(=O)[C@H](CCCNC(=N)N)NC(=O)[C@H](Cc2ccc(O)cc2)NC(=O)[C@@H]2CSSC[C@H](NC1=O)C(=O)N[C@@H](C)C(=O)N[C@@H](Cc1ccc(O)cc1)C(=O)N[C@@H](CO)C(=O)N[C@@H](CC(N)=O)C(=O)NCC(=O)N[C@@H](CCCCN)C(=O)N[C@@H](CCCNC(=N)N)C(=O)N[C@@H](C(C)C)C(=O)N2 [compound 425] (H-GFCWRVCAYSNGKRVCYRRCN-OH; disulfide 3-20, 7-16 (inferred); N-terminus and C-terminus assumed) | 0.31
CC(C)C[C@@H]1NC(=O)CNC(=O)[C@H](CC(N)=O)NC(=O)[C@H](CCCNC(=N)N)NC(=O)[C@H](CO)NC(=O)[C@H](C)NC(=O)[C@@H]2CSSC[C@H](NC(=O)[C@H](C(C)C)NC(=O)[C@H](CCCNC(=N)N)NC1=O)C(=O)N[C@@H](Cc1ccc(O)cc1)C(=O)N[C@@H](CCCNC(=N)N)C(=O)N[C@@H](CCCNC(=N)N)C(=O)N[C@H](C(=O)N[C@@H](CC(N)=O)C(=O)O)CSSC[C@H](NC(=O)[C@H](Cc1ccccc1)NC(=O)CN)C(=O)N[C@@H](Cc1c[nH]c3ccccc13)C(=O)N[C@@H](CCCNC(=N)N)C(=O)N[C@@H](C(C)C)C(=O)N2 [compound 435] (H-GFCWRVCASRNGLRVCYRRCN-OH; disulfide 3-20, 7-16 (inferred); N-terminus and C-terminus assumed) | 0.15
CC(C)[C@@H]1NC(=O)[C@H](CCCNC(=N)N)NC(=O)[C@H](CCCCN)NC(=O)CNC(=O)[C@H](CC(N)=O)NC(=O)[C@H](CO)NC(=O)[C@H](Cc2ccc(O)cc2)NC(=O)[C@H](Cc2c[nH]cn2)NC(=O)[C@@H]2CSSC[C@H](NC1=O)C(=O)N[C@@H](Cc1ccc(O)cc1)C(=O)N[C@@H](CCCNC(=N)N)C(=O)N[C@@H](CCCNC(=N)N)C(=O)N[C@H](C(=O)N[C@@H](CC(N)=O)C(=O)O)CSSC[C@H](NC(=O)[C@H](Cc1ccccc1)NC(=O)CN)C(=O)N[C@@H](Cc1c[nH]c3ccccc13)C(=O)N[C@@H](CCCNC(=N)N)C(=O)N[C@@H](C(C)C)C(=O)N2 [compound 439] (H-GFCWRVCHYSNGKRVCYRRCN-OH; disulfide 3-20, 7-16 (inferred); N-terminus and C-terminus assumed) | 0.08
CC(C)C[C@@H]1NC(=O)CNC(=O)[C@H](CC(N)=O)NC(=O)[C@H](CCCNC(=N)N)NC(=O)[C@H](CCCCN)NC(=O)[C@H](C)NC(=O)[C@@H]2CSSC[C@H](NC(=O)[C@H](C(C)C)NC(=O)[C@H](CCCNC(=N)N)NC1=O)C(=O)N[C@@H](Cc1ccc(O)cc1)C(=O)N[C@@H](CCCNC(=N)N)C(=O)N[C@@H](CCCNC(=N)N)C(=O)N[C@H](C(=O)N[C@@H](CC(N)=O)C(=O)O)CSSC[C@H](NC(=O)[C@H](Cc1ccccc1)NC(=O)CN)C(=O)N[C@@H](Cc1c[nH]c3ccccc13)C(=O)N[C@@H](Cc1ccc(O)cc1)C(=O)N[C@@H](C)C(=O)N2 [compound 450] (H-GFCWYACAKRNGLRVCYRRCN-OH; disulfide 3-20, 7-16 (inferred); N-terminus and C-terminus assumed) | 0.02
CC(C)C[C@@H]1NC(=O)CNC(=O)[C@H](CC(N)=O)NC(=O)[C@H](CCCNC(=N)N)NC(=O)[C@H](CCCNC(=N)N)NC(=O)[C@H](C)NC(=O)[C@@H]2CSSC[C@H](NC(=O)[C@H](CO)NC(=O)[C@H](CCCNC(=N)N)NC1=O)C(=O)N[C@@H](Cc1ccc(O)cc1)C(=O)N[C@@H](CCCNC(=N)N)C(=O)N[C@@H](CCCNC(=N)N)C(=O)N[C@H](C(=O)N[C@@H](CC(N)=O)C(=O)O)CSSC[C@H](NC(=O)[C@H](Cc1ccccc1)NC(=O)CN)C(=O)N[C@@H](Cc1c[nH]c3ccccc13)C(=O)N[C@@H](Cc1ccc(O)cc1)C(=O)N[C@@H](C(C)C)C(=O)N2 [compound 453] (H-GFCWYVCARRNGLRSCYRRCN-OH; disulfide 3-20, 7-16 (inferred); N-terminus and C-terminus assumed) | 0.08
CC(C)[C@@H]1NC(=O)[C@@H]2CSSC[C@H](NC(=O)[C@H](CCCCN)NC(=O)[C@H](CCCNC(=N)N)NC(=O)[C@H](C)NC(=O)CNC(=O)[C@H](CC(N)=O)NC(=O)[C@H](CCCNC(=N)N)NC(=O)[C@H](CCCCN)NC1=O)C(=O)N[C@@H](Cc1c[nH]cn1)C(=O)N[C@@H](CCCNC(=N)N)C(=O)N[C@@H](CCCNC(=N)N)C(=O)N[C@H](C(=O)N[C@@H](CC(N)=O)C(=O)O)CSSC[C@H](NC(=O)[C@H](Cc1ccccc1)NC(=O)CN)C(=O)N[C@@H](Cc1c[nH]c3ccccc13)C(=O)N[C@@H](Cc1ccc(O)cc1)C(=O)N[C@@H](C(C)C)C(=O)N2 [compound 454] (H-GFCWYVCVKRNGARKCHRRCN-OH; disulfide 3-20, 7-16 (inferred); N-terminus and C-terminus assumed) | 0.1
CC(C)[C@@H]1NC(=O)[C@@H]2CSSC[C@H](NC(=O)[C@H](C)NC(=O)[C@H](CCCNC(=N)N)NC(=O)[C@H](CCCCN)NC(=O)CNC(=O)[C@H](CC(N)=O)NC(=O)[C@H](CCCCN)NC(=O)[C@H](Cc3ccc(O)cc3)NC1=O)C(=O)N[C@@H](Cc1ccc(O)cc1)C(=O)N[C@@H](CCCNC(=N)N)C(=O)N[C@@H](CCCNC(=N)N)C(=O)N[C@H](C(=O)N[C@@H](CC(N)=O)C(=O)O)CSSC[C@H](NC(=O)[C@H](Cc1ccccc1)NC(=O)CN)C(=O)NCC(=O)N[C@@H](CCCNC(=N)N)C(=O)N[C@@H](C(C)C)C(=O)N2 [compound 493] (H-GFCGRVCVYKNGKRACYRRCN-OH; disulfide 3-20, 7-16 (inferred); N-terminus and C-terminus assumed) | 0.23

From US20160158317A1, “Antimicrobial Peptide Variants and Polynucleotides Encoding Same” (Adenium Biotech A/S, priority 2010, published 2016)
